Source: patent publication US5919457A, “TXU-5/B53-PAP antiviral biotherapeutic agent for the treatment of AIDS” (priority 1996, dated 1999)
Several values for one entry are separate records, joined by “and”; a condition that tells them apart may be missing. Equal values may be shown once.

Columns and labels:
HIV-1 [1] = test system: HIV-1; set-up: species or system Hu-PBL-SCID mice; conditions: mouse, in vivo
Experimental: Mutant C.B 17 mice are used as model systems to examine the in vivo homing, engraftment, and growth patterns of normal and malignant human hematopoictic cells. Lapidot et al., Blood, 80, 32a (1992). […] Mosier et al., Science, 251, 791 (1991). […] Mosier et al., cited supra. Hu-PBL-SCID mice were generated as described previously. Mosier et al., cited supra. Non-toxic doses of TXU-5/B53-PAP (20%-50% of LD10) were administered intraperitoneally by injecting half of the total dose as a bolus and delivering the remainder i.p. over 2 weeks using Alzet micro-osmotic pumps.
Two weeks after infection with HIV-1, mice were electively killed and fresh peritoneal lavage cells as well as spleen cells were isolated, cocultured with phytohemagglutinin(PHA)-stimulated human peripheral blood mononuclear cells from an HIV-1 antibody negative donor, and culture supernatants were tested every 3-4 days for a maximum of 28 days for the presence of HIV-1 antigen with a commercially available enzyme immunoassay (Abbott Laboratories, North Chicago, Ill.) that detects primarily the core p24 antigen of HIV-1, as previously described. Goudsmit et al., J. Infectious Diseases, 155, 558 (1987). In addition to this culture method, DNA was also isolated from the peritoneal lavage cells as well as splenocytes for detection of HIV-1 DNA by PCR amplification of a 115 b.p. sequence in the gag region of the HIV-1 genome using two 29-base oligonucleotide primers, SK38 and SK39, that flank the region to be amplified. Ou C-Y et al., Science, 239, 295 (1988) DNA samples were also examined for the presence of human DNA by PCR amplification of a 110-bp fragment from the first exon of the human β-globin gene using two 20-base oligonucleotide primers, PCO3 and PCO4, that flank the region to be amplified, as previously described by Uckun et al. in Blood, 79, 2201 (1992).

[2] = test system: HIV-1 isolate G-9106 (zidovudine-resistant); conditions: read-out: IC50 (concentration at which 50% of the reverse transcriptase activity is inhibited); cited from earlier work
[3] = test system: HIV-1 isolate G-6912 (zidovudine-resistant); conditions: read-out: IC50 (concentration at which 50% of the reverse transcriptase activity is inhibited); cited from earlier work
HIV-1 [4] = test system: HIV-1; set-up: species or system Hu-PBL-SCID mice; conditions: mouse, in vivo; remark: listed apart in the source

Cc1cn([C@H]2C[C@H](N=[N+]=[N-])[C@@H](CO)O2)c(=O)[nH]c1=O [ZDV, zidovudine]
Hu-PBL-SCID mice HIV-1 negative (HIV-1 [1]): 3 of 10 | PCR + Cx: mice PCR-positive and culture-positive (footnote c) (HIV-1 [1]): 4/8 and 4 | PCR + Cx: mice PCR-positive but culture-negative (footnote b) (HIV-1 [1]): 4/8 and 3 | PCR Only: PCR- mice/analyzed (HIV-1 [1]): 2/2 | Peritoneal Lavage Cells PCR+ (mice positive/analyzed) (HIV-1 [1]): 7/10 | Peritoneal Lavage and Spleen Mixed Cx+ (cultures positive/analyzed) (HIV-1 [1]): 4/8 | Spleen Cells PCR+ (mice positive/analyzed) (HIV-1 [1]): 5/10 | IC50 [2]: 8.7 µM | IC50 [3]: 1.5 µM | gp120 on CD4+ lymphocytes from the peritoneal cavity (flow cytometry) (HIV-1 [4]): presence of gpl120 on CD4+ cells
